In PMC7311426, “An amphipathic peptide with antibiotic activity against multidrug-resistant Gram-negative bacteria” (Nature Communications, 2020):
Where two headings read alike, the source gives them in different places. Residues, ends and D or L forms follow the SMILES beside them.

Tests used:
C. neoformans = experiment: microbe, parasite or virus in culture
C. albicans = experiment: microbe, parasite or virus in culture

SMILES: CC(C)[C@@H]1NC(=O)[C@H](Cc2ccc(O)cc2)NC(=O)[C@H](Cc2c[nH]c3ccccc23)NC(=O)[C@@H](NC(=O)[C@H](Cc2ccccc2)NC(=O)CN)CSSC[C@@H](C(=O)N[C@@H](CC(N)=O)C(=O)O)NC(=O)[C@H](CCCNC(=N)N)NC(=O)[C@H](CCCNC(=N)N)NC(=O)[C@H](Cc2ccc(O)cc2)NC(=O)[C@@H]2CSSC[C@H](NC1=O)C(=O)N[C@@H](C)C(=O)N[C@@H](CCCNC(=N)N)C(=O)N[C@@H](CCCNC(=N)N)C(=O)N[C@@H](CC(N)=O)C(=O)NCC(=O)N[C@@H](C)C(=O)N[C@@H](CCCNC(=N)N)C(=O)N[C@@H](C(C)C)C(=O)N2 [AA139] (HELM PEPTIDE1{G.F.C.W.Y.V.C.A.R.R.N.G.A.R.V.C.Y.R.R.C.N}$PEPTIDE1,PEPTIDE1,3:R3-20:R3|PEPTIDE1,PEPTIDE1,7:R3-16:R3$$$V2.0)
- BMD MIC (C. neoformans): 1 µg/mL
- MIC against Cryptococcus neoformans (C. neoformans): 1 to 4 µg/mL
- BMD MIC (C. albicans): ≥32 µg/mL
- BMD MIC (C. albicans; 24 h): 64 µg/mL
